{"source": "patent US6518308B2", "about": "“Compositions for adhesion prevention” (priority 2000, dated 2003)", "key": {"[1]": {"system": "human mesothelial cells or human fibroblasts", "test": "cell cultures under hypoxic conditions, production of inflammatory cytokines and growth factors", "assay_type": "cell-based", "details": "human mesothelial cells or human fibroblasts cultured under hypoxic conditions, presence vs absence of dichloroacetic acid", "procedure": "Similarly, cell cultures using human mesothelial cells or human fibroblasts are cultured under hypoxic conditions in the presence and absence of dichloroacetic acid. The production of inflammatory cytokines and growth factors is measured, and found to be reduced in the presence of dichloroacetic acid. These growth factors, such as IL-1 and TGF-β, are believed to be associated with adhesion development."}, "[2]": {"test": "animal adhesion study, monitoring of serum alanine and lactate", "assay_type": "in vivo, rat or rabbit", "details": "in the presence of dichloroacetic acid, intravenous injection or slow release", "procedure": "An animal adhesion study to evaluate the effectiveness of the pharmaceutical compositions described previously is conducted using a standardized animal model, such as a model of cecal abrasion in the rat or an oravian bisection in the rabbit.\nThe animals undergo lesioning by a surgeon unaware of group assignment, with necropsy performed one to two weeks later as is standard for that particular animal model.\nThe animals are randomized in a placebo control group and a group using dichloroacetic acid. The treatment begins preoperatively, and continues for five days after surgery. Dichloroacetic acid is administered by intravenous injection, or by slow release from a delivery agent, and is left in the peritoneal cavity following surgery. The maintenance of adequate amounts of dichloroacetic acid can be monitored by the measurement of serum alanine and lactate, which is reduced in the presence of dichloroacetic acid. Necropsy is performed on the animals, and adhesions are scored. Studies are completed on a total of 30 animals in each group in at least three settings."}}, "data": [{"smiles": "O=C(O)C(Cl)Cl", "note": "[dichloroacetic acid]", "values": [{"measurement": "production of inflammatory cytokines and growth factors (such as IL-1 and TGF-β)", "setting": "[1]", "result": "reduced"}, {"measurement": "serum alanine and lactate", "setting": "[2]", "result": "reduced"}]}]}
